Measured values published in ChEMBL document CHEMBL1201862, “PubChem BioAssay data set” (2004).
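Cells were grown in 96-well plates and exposed to each compound for 48 hours at five concentrations; endpoints were interpolated linearly between bracketing concentrations, or set to the highest concentration if not reached. GI50 marks 50% less growth.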 Active and inactive are the calls of the source. Rule as the data show it: active = GI50 up to about 1.1 µM and inactive = higher.

Experiments:
Experiment in all cases: NCI-60 cell line screen, 48 h
786-0 = system: 786-0
DU-145 = system: DU-145
HCC 2998 = system: HCC 2998
HOP-62 = system: HOP-62
Hs-578T = system: Hs-578T
IGROV-1 = system: IGROV-1
K562 = system: K562
MCF7 = system: MCF7
MOLT-4 = system: MOLT-4
Malme-3M = system: Malme-3M
NCI-H460 = system: NCI-H460
OVCAR-5 = system: OVCAR-5
RXF 393 = system: RXF 393
SF-268 = system: SF-268
SK-MEL-5 = system: SK-MEL-5
SN12C = system: SN12C
T47D = system: T47D
UACC-62 = system: UACC-62
A498 = system: A498

| Structure (SMILES) | GI50 (786-0) | GI50 (DU-145) | GI50 (HCC 2998) | GI50 (HOP-62) | GI50 (Hs-578T) | GI50 (IGROV-1) | GI50 (K562) | GI50 (MCF7) | GI50 (MOLT-4) | GI50 (Malme-3M) | GI50 (NCI-H460) | GI50 (OVCAR-5) | GI50 (RXF 393) | GI50 (SF-268) | GI50 (SK-MEL-5) | GI50 (SN12C) | GI50 (T47D) | GI50 (UACC-62) | GI50 (A498) |
| --- | --- | --- | --- | --- | --- | --- | --- | --- | --- | --- | --- | --- | --- | --- | --- | --- | --- | --- | --- |
| C=O.NNCCc1n[nH]c(=O)n1N | > 100 µM (inactive) | > 100 µM (inactive) | > 100 µM (inactive) | > 100 µM (inactive) | > 100 µM (inactive) | > 100 µM (inactive) | > 100 µM (inactive) | > 100 µM (inactive) | > 100 µM (inactive) | > 100 µM (inactive) | > 100 µM (inactive) | > 100 µM (inactive) | > 100 µM (inactive) | > 100 µM (inactive) | > 100 µM (inactive) | > 100 µM (inactive) | > 100 µM (inactive) | > 100 µM (inactive) | – |
| COc1ccc2c(c1)CCc1c-2n(CCN(C)C)c2ccc(OC)cc12 | 27.2 µM (inactive) | 33.9 µM (inactive) | 3.09 µM (inactive) | 16.1 µM (inactive) | 21.4 µM (inactive) | 18.7 µM (inactive) | 3.77 µM (inactive) | 16.4 µM (inactive) | 10.2 µM (inactive) | 19.7 µM (inactive) | 30.4 µM (inactive) | 16.8 µM (inactive) | – | 22.6 µM (inactive) | 12.4 µM (inactive) | 12.5 µM (inactive) | 15.5 µM (inactive) | 9.42 µM (inactive) | 17.6 µM (inactive) |
| COc1ccc(NC(=O)C(=O)C(CC2C(=O)NC(=S)NC2=O)C(=O)c2ccc3ccccc3c2)c([N+](=O)[O-])c1 (stereo not drawn) | > 100 µM (inactive) | > 100 µM (inactive) | > 100 µM (inactive) | – | > 100 µM (inactive) | > 100 µM (inactive) | > 100 µM (inactive) | > 100 µM (inactive) | > 100 µM (inactive) | – | > 100 µM (inactive) | > 100 µM (inactive) | – | > 100 µM (inactive) | > 100 µM (inactive) | > 100 µM (inactive) | > 100 µM (inactive) | > 100 µM (inactive) | > 100 µM (inactive) |
| COC(=O)NC1=NNC(=O)c2ccccc2N1 | > 100 µM (inactive) | > 100 µM (inactive) | > 100 µM (inactive) | > 100 µM (inactive) | > 100 µM (inactive) | > 100 µM (inactive) | > 100 µM (inactive) | > 100 µM (inactive) | > 100 µM (inactive) | – | > 100 µM (inactive) | > 100 µM (inactive) | > 100 µM (inactive) | > 100 µM (inactive) | > 100 µM (inactive) | > 100 µM (inactive) | > 100 µM (inactive) | > 100 µM (inactive) | > 100 µM (inactive) |
| C1COC(NC(C2CC2)C2CC2)=N1 [RILMENIDINE] | > 100 µM (inactive) | > 100 µM (inactive) | > 100 µM (inactive) | – | > 100 µM (inactive) | > 100 µM (inactive) | > 100 µM (inactive) | > 100 µM (inactive) | > 100 µM (inactive) | > 100 µM (inactive) | > 100 µM (inactive) | > 100 µM (inactive) | > 100 µM (inactive) | – | > 100 µM (inactive) | – | > 100 µM (inactive) | > 100 µM (inactive) | > 100 µM (inactive) |
| O=C1C(OC(=O)c2ccccc2)=C(c2ccc(O)cc2)C(=O)C(OC(=O)c2ccccc2)=C1c1ccc(O)cc1 | > 100 µM (inactive) | > 100 µM (inactive) | 40.3 µM (inactive) | – | > 100 µM (inactive) | > 100 µM (inactive) | > 100 µM (inactive) | > 100 µM (inactive) | 36 µM (inactive) | > 100 µM (inactive) | 74.1 µM (inactive) | > 100 µM (inactive) | – | > 100 µM (inactive) | > 100 µM (inactive) | > 100 µM (inactive) | > 100 µM (inactive) | 44.7 µM (inactive) | > 100 µM (inactive) |
| CCOC(=O)Cn1c(=O)c2nc(SC)sc2n(CC)c1=S | 0.173 µM (active) | > 100 µM (inactive) | > 100 µM (inactive) | > 100 µM (inactive) | 22.1 µM (inactive) | 94 µM (inactive) | > 100 µM (inactive) | > 100 µM (inactive) | > 100 µM (inactive) | > 100 µM (inactive) | > 100 µM (inactive) | > 100 µM (inactive) | 36.8 µM (inactive) | > 100 µM (inactive) | > 100 µM (inactive) | > 100 µM (inactive) | 61 µM (inactive) | – | – |
| Cc1cnc2nc(-c3ccc(Cl)cc3)cc(O)c2c1 | 6.17 µM (inactive) | 11.1 µM (inactive) | 11.4 µM (inactive) | 5.86 µM (inactive) | 6.7 µM (inactive) | 5.66 µM (inactive) | 1.07 µM (active) | 4.48 µM (inactive) | 3.31 µM (inactive) | 8.61 µM (inactive) | 3.47 µM (inactive) | 11.1 µM (inactive) | – | 19.7 µM (inactive) | 2.49 µM (inactive) | 6.31 µM (inactive) | 43 µM (inactive) | 5.5 µM (inactive) | 5.48 µM (inactive) |
| O=C(O)/C=C/C(=O)Nc1nc[nH]n1 | > 100 µM (inactive) | > 100 µM (inactive) | > 100 µM (inactive) | > 100 µM (inactive) | > 100 µM (inactive) | > 100 µM (inactive) | – | > 100 µM (inactive) | 62.5 µM (inactive) | – | > 100 µM (inactive) | > 100 µM (inactive) | > 100 µM (inactive) | > 100 µM (inactive) | > 100 µM (inactive) | > 100 µM (inactive) | > 100 µM (inactive) | > 100 µM (inactive) | > 100 µM (inactive) |
| CC(C)C(Br)C(=O)NCC(=O)O (stereo not drawn) | > 100 µM (inactive) | > 100 µM (inactive) | – | > 100 µM (inactive) | > 100 µM (inactive) | > 100 µM (inactive) | > 100 µM (inactive) | > 100 µM (inactive) | > 100 µM (inactive) | > 100 µM (inactive) | > 100 µM (inactive) | > 100 µM (inactive) | > 100 µM (inactive) | > 100 µM (inactive) | > 100 µM (inactive) | > 100 µM (inactive) | > 100 µM (inactive) | > 100 µM (inactive) | > 100 µM (inactive) |
| C#CCOC(=O)[C@@H](C)c1ccc2cc(OC)ccc2c1 | 71.9 µM (inactive) | > 100 µM (inactive) | – | > 100 µM (inactive) | > 100 µM (inactive) | > 100 µM (inactive) | 44.8 µM (inactive) | 63.8 µM (inactive) | 32.1 µM (inactive) | – | > 100 µM (inactive) | > 100 µM (inactive) | 86.5 µM (inactive) | > 100 µM (inactive) | 40.9 µM (inactive) | > 100 µM (inactive) | > 100 µM (inactive) | > 100 µM (inactive) | > 100 µM (inactive) |
| Oc1c(Br)cc(CN(Cc2cc(Br)c(O)c(Br)c2)C2CCCCC2)cc1Br | > 100 µM (inactive) | > 100 µM (inactive) | – | > 100 µM (inactive) | > 100 µM (inactive) | > 100 µM (inactive) | > 100 µM (inactive) | > 100 µM (inactive) | > 100 µM (inactive) | > 100 µM (inactive) | – | > 100 µM (inactive) | > 100 µM (inactive) | > 100 µM (inactive) | > 100 µM (inactive) | > 100 µM (inactive) | > 100 µM (inactive) | > 100 µM (inactive) | > 100 µM (inactive) |
| FC1=C2CCCCCC2SC1(F)F (stereo not drawn) | > 100 µM (inactive) | > 100 µM (inactive) | > 100 µM (inactive) | – | > 100 µM (inactive) | > 100 µM (inactive) | 20.8 µM (inactive) | 71.9 µM (inactive) | 16.4 µM (inactive) | 21.9 µM (inactive) | – | > 100 µM (inactive) | 13.3 µM (inactive) | > 100 µM (inactive) | > 100 µM (inactive) | – | > 100 µM (inactive) | > 100 µM (inactive) | – |
| CC(C)=CCC(O)C1=CC(=O)c2c(O)ccc(O)c2C1=O (stereo not drawn) | 0.494 µM (active) | 1.22 µM (inactive) | 1.74 µM (inactive) | 1.82 µM (inactive) | 2.9 µM (inactive) | 1.64 µM (inactive) | 0.191 µM (active) | 0.557 µM (active) | 0.063 µM (active) | – | 1.88 µM (inactive) | 1.97 µM (inactive) | 0.745 µM (active) | 2.27 µM (inactive) | 0.301 µM (active) | 0.664 µM (active) | 0.39 µM (active) | 1.58 µM (inactive) | 1.96 µM (inactive) |
| Nc1ccc(-c2nc3ccccc3s2)cc1C(F)(F)F | 13.5 µM (inactive) | 15.8 µM (inactive) | – | 15.4 µM (inactive) | 20 µM (inactive) | – | 20 µM (inactive) | 1.52 µM (inactive) | 19.9 µM (inactive) | 15.8 µM (inactive) | – | – | 9.08 µM (inactive) | 16 µM (inactive) | 15.5 µM (inactive) | 13.6 µM (inactive) | 5.31 µM (inactive) | 16.9 µM (inactive) | 17.6 µM (inactive) |
| CC(C)(C)OC(=O)N1CCC23CCCC2C(=O)CC=C13 (stereo not drawn) | > 100 µM (inactive) | > 100 µM (inactive) | > 100 µM (inactive) | > 100 µM (inactive) | > 100 µM (inactive) | > 100 µM (inactive) | > 100 µM (inactive) | > 100 µM (inactive) | > 100 µM (inactive) | > 100 µM (inactive) | > 100 µM (inactive) | > 100 µM (inactive) | > 100 µM (inactive) | > 100 µM (inactive) | > 100 µM (inactive) | > 100 µM (inactive) | > 100 µM (inactive) | > 100 µM (inactive) | – |
